From paper PMC8175851, “Effects of Genetic Polymorphism in CYP2D6, CYP2C19, and the Organic Cation Transporter OCT1 on Amitriptyline Pharmacokinetics in Healthy Volunteers and Depressive Disorder Patients” (Frontiers in Pharmacology, 2021)
Read-outs that look alike come from different tables or passages of the source.

Columns and labels:
[1] = Pharmacokinetics of AT and NT in healthy volunteers after a single dose of 25 mg amitriptyline; assay type: in vivo, human; conditions: healthy volunteers; for Tmax / half-life / AUC(0-inf) / Cmax / AUC(0-t): human, plasma, po, 25 mg; for Tmax / half-life / AUC(0-inf) / Cmax / Vz / CL / AUC(0-t): single oral 25 mg AT; for AUC(0-inf): read-out: AUCinf; for AUC(0-t): read-out: AUC48h
Source text: In order to enrich the study sample with the less frequent functionally deficient OCT1 variants, participants were selected based on OCT1 genotype from an internal database at the Institute of Clinical Pharmacology of the University Medical Center Göttingen. All volunteers who are listed in the internal database had agreed to it and the database was approved by the ethics committee of the University of Göttingen. […] Additional subjects with heterozygous genotypes were included to provide a better understanding of the effects of specific variants and the mode of inheritance. All volunteers gave their written informed consent before participation in the study. The study was approved by the ethics committee of the University of Göttingen and the German Federal Institute for Drugs and Medical Devices (BfArM). It was registered at the clinical trials databases Clinicaltrials.gov (NCT02054299) and EudraCT (number 2012-003546-33). […] Volunteers who underwent regular drug treatments other than oral contraceptives or who suffered from any relevant chronic illness, as well as pregnant or lactating women, were not included. All subjects were healthy according to a detailed medical history, medical examination, electrocardiogram, urine status and clinical chemistry, and haematology parameters (sodium, potassium, total bilirubin, aspartate aminotransferase, alanine-aminotransferase, creatinine, C-reactive protein, thyroid-stimulating hormone, haemoglobin, erythrocyte, thrombocyte, and leucocyte counts). […] After centrifugation (13,000 rpm, 15 min, room temperature), two-thirds of the supernatant were transferred to a new reaction tube and evaporated at 40°C under nitrogen flow. The residue was reconstituted under shaking in 0.1% methanoic acid and briefly centrifuged before quantification using a Nexera UHPLC system (Shimadzu, Kyoto, Japan) coupled to an API 4000 tandem mass spectrometer (AB Sciex, Darmstadt, Germany). […] PerkinElmer, Rodgau, Germany) with a Phenomenex C18 pre-column (4 × 2 mm, Phenomenex, Aschaffenburg, Germany). […] The lower limit of quantification was 0.5 ng/ml for AT and 0.1 ng/ml for NT. […] The mass spectrometry detection parameters are listed in Supplementary Table S1. For the study in healthy volunteers, the primary endpoints were the AUCs of plasma AT and NT concentrations. Secondary endpoints were the other pharmacokinetic parameters of AT and NT, as well as heart rate, blood pressure, pupil size effects, and possible adverse events (headache, fatigue, visual or hearing impairments, restlessness, nausea, dizziness, dry mouth, tremor, as well as sensations of hypothermia and heart palpitations determined using a visual analogue scale test). Pharmacokinetic parameters were calculated by non-compartmental analysis using Phoenix 64 WinNonlin version 6.3 (Certara Inc., Princeton, NJ, United States). AUCinf of AT was calculated from the time of dosing using the linear/log trapezoidal rule and extrapolated to infinity based on the last predicted concentration and using the terminal elimination rate constant (lambda z). AUC of NT was calculated from the time of dosing until the last measurement at 48 h using the linear/log trapezoidal rule, as a decline in NT concentrations was not observed in some subjects and extrapolation to infinity thus not possible.

[2] = Plasma concentrations per dose unit of AT and NT in depressive disorder patients (75 mg AT twice daily); assay type: in vivo, human; conditions: 12-hour-trough levels
Procedure: Briefly, 75 mg AT was administered twice daily at 12 h dosing intervals. Any drugs or dietary ingredients that might interfere with CYP2D6 or CYP2C19 metabolism were avoided whenever possible. Blood samples (12-hour-trough levels) were taken on days 0, 7, 14, 18, and 21, centrifuged, and stored at 4°C for genotyping (CYP2D6 and CYP2C19) and concentration analyses. The blood samples were subsequently stored at −20°C and later genotyped for OCT1.
The serum concentrations in depressive disorder patients were determined either by the Emit® immunoassay specific for AT and NT or a commercial high-performance liquid chromatography assay (Bio-Rad Laboratories GmbH, Feldkirchen, Germany), as described before ([Steimer et al., 2004]; [Steimer et al., 2005]).
The correlation between AT and NT plasma AUC (study in healthy volunteers) or mean plasma concentration per dose unit (study in depressive disorder patients) and OCT1, CYP2D6, and CYP2C19 genotypes were calculated using the Jonckheere-Terpstra non-parametric analysis, which takes into consideration the a priori ordering (or trend) in gene activities from zero to normal to ultra-rapid (for CYP2C19 and CYP2D6). To do so, the genotypes were categorized into 0, 1, or 2 active alleles for OCT1, into 0, 0.5, 1, 1.5, 2, 2.5, or 3 active alleles for CYP2D6, and into 0, 1, 1.5, 2, 2.5, or 3 active alleles for CYP2C19, depending on their known effects on transporter/enzyme activity. OCT1 alleles *2, *3, *4, *5 were classified as being zero active. […] A semi-quantitative gene dosage was calculated for CYP2D6, as has been described earlier ([Steimer et al., 2004]). For calculating a CYP2C19 activity score, CYP2C19*2 was regarded as zero active, CYP2C19*1 was classified as 1, and CYP2C19*17 as 1.5. Additional multiple linear regression analyses included sex, age, body mass index, and glomerular filtration rate.

[3] = both sexes, CYP2D6 activity 2 (n = 11), mean
[4] = both sexes, CYP2D6 activity 2.5 (n = 1), mean
[5] = both sexes, CYP2D6 activity 3 (n = 2), mean
[6] = CYP2C19 activity score 0 (n = 1), mean
[7] = CYP2C19 activity score 3 (n = 1), mean

CN(C)CCC=C1c2ccccc2CCc2ccccc21 [Amitriptyline, amitriptyline]
Tmax [1, 3]: 3.4 h | half-life [1, 3]: 1170 min | Tmax [1, 4]: 6 h | half-life [1, 4]: 840 min | Tmax [1, 5]: 2 h | half-life [1, 5]: 1240 min | AUC(0-inf) ([1]; both sexes, OCT1 genotype *1 / *1 (n 14), mean ± standard deviation): 243 ± 88 ng·h/mL | AUC(0-inf) ([1]; both sexes, OCT1 genotype *1 / *2 (n 3), mean ± standard deviation): 273 ± 59 ng·h/mL | AUC(0-inf) ([1]; both sexes, OCT1 genotype *1 / *3 (n 4), mean ± standard deviation): 216 ± 87 ng·h/mL | AUC(0-inf) ([1]; both sexes, OCT1 genotype *1 / *4 (n 2), mean ± standard deviation): 187 ± 49 ng·h/mL | AUC(0-inf) ([1]; both sexes, OCT1 genotype *2 / *2 (n 3), mean ± standard deviation): 202 ± 92 ng·h/mL | AUC(0-inf) ([1]; both sexes, OCT1 genotype *2 / *3 (n 4), mean ± standard deviation): 189 ± 53 ng·h/mL | AUC(0-inf) ([1]; both sexes, OCT1 genotype *2 / *5 (n 1)): 298 ng·h/mL | AUC(0-inf) ([1]; both sexes, OCT1 genotype *3 / *3 (n 3), mean ± standard deviation): 172 ± 28 ng·h/mL | AUC(0-inf) ([1]; both sexes, OCT1 genotype *3 / *4 (n 1)): 215 ng·h/mL | Cmax ([1]; both sexes, read-out: average Cmax): 39 nM | Cmax ([1]; both sexes, read-out: average Cmax (average peak plasma concentration)): 10.7 ng/mL | peak concentration of unbound AT ([1]; 25 mg AT, from peak plasma concentration with 95% plasma protein binding): 0.54 µg/L | Vz ([1]; 0 active OCT1 alleles (n = 12)): 3,828 ± 800 L | Vz ([1]; 1 active OCT1 allele (n = 9)): 3,610 ± 1,633 L | Vz ([1]; 2 active OCT1 alleles (n = 14)): 3,401 ± 1,041 L | CL ([1]; CL/F = dose/AUCinf, 0 active OCT1 alleles (n = 12)): 2.3 ± 0.6 L/min | CL ([1]; CL/F = dose/AUCinf, 1 active OCT1 allele (n = 9)): 2.0 ± 0.8 L/min | CL ([1]; CL/F = dose/AUCinf, 2 active OCT1 alleles (n = 14)): 1.9 ± 0.6 L/min | CL ([1]; CL/F, CYP2C19 activity score 0 (n = 1), mean): 1.30 L/min | CL ([1]; CL/F, CYP2C19 activity score 1 (n = 5), mean): 1.94 L/min | CL ([1]; CL/F, CYP2C19 activity score 1.5 (n = 2), mean): 1.5 L/min | CL ([1]; CL/F, CYP2C19 activity score 2 (n = 16), mean): 2.1 L/min | CL ([1]; CL/F, CYP2C19 activity score 2.5 (n = 10), mean): 2.2 L/min | CL ([1]; CL/F, CYP2C19 activity score 3 (n = 1), mean): 1.54 L/min | CL ([1]; CL/F, CYP2D6 activity 0 (n = 3), mean): 1.45 L/min | CL ([1]; CL/F, CYP2D6 activity 0.5 (n = 2), mean): 2.09 L/min | CL ([1]; CL/F, CYP2D6 activity 1 (n = 10), mean): 1.81 L/min | CL ([1]; CL/F, CYP2D6 activity 1.5 (n = 6), mean): 2.03 L/min | CL ([1]; CL/F, CYP2D6 activity 2 (n = 11), mean): 2.25 L/min | CL ([1]; CL/F, CYP2D6 activity 2.5 (n = 1), mean): 2.64 L/min | CL ([1]; CL/F, CYP2D6 activity 3 (n = 2), mean): 2.92 L/min | Vz [1, 6]: 3,004 L | Vz ([1]; CYP2C19 activity score 1 (n = 5), mean): 3,525 L | Vz ([1]; CYP2C19 activity score 1.5 (n = 2), mean): 2,559 L | Vz ([1]; CYP2C19 activity score 2 (n = 16), mean): 3,696 L | Vz ([1]; CYP2C19 activity score 2.5 (n = 10), mean): 3,740 L | Vz [1, 7]: 3,762 L | Vz ([1]; CYP2D6 activity 0 (n = 3), mean): 2,982 L | Vz ([1]; CYP2D6 activity 0.5 (n = 2), mean): 4,189 L | Vz ([1]; CYP2D6 activity 1 (n = 10), mean): 3,269 L | Vz ([1]; CYP2D6 activity 1.5 (n = 6), mean): 3,446 L | Vz ([1]; CYP2D6 activity 2 (n = 11), mean): 3,768 L | Vz ([1]; CYP2D6 activity 2.5 (n = 1), mean): 3,192 L | Vz ([1]; CYP2D6 activity 3 (n = 2), mean): 5,361 L | AUC(0-t) [1, 6]: 229 ng·h/mL | AUC(0-inf) [1, 6]: 321 ng·h/mL | Cmax ([1]; CYP2C19 activity score 0 (n = 1), mean, read-out: Cmax): 11.5 ng/mL | AUC(0-t) [1, 7]: 198 ng·h/mL | AUC(0-inf) [1, 7]: 271 ng·h/mL | Cmax ([1]; CYP2C19 activity score 3 (n = 1), mean, read-out: Cmax): 13.9 ng/mL | Tmax [1, 6]: 4 h | half-life [1, 6]: 1600 min | Tmax [1, 7]: 2 h | half-life [1, 7]: 1700 min | Mean plasma concentration per dose unit ([2]; OCT1 genotype *1 / *1 (n 27), mean ± standard deviation): 37.3 ± 15.9 | Mean plasma concentration per dose unit ([2]; OCT1 genotype *1 / *2 (n 14), mean ± standard deviation): 44.0 ± 15.2 | Mean plasma concentration per dose unit ([2]; OCT1 genotype *1 / *3 (n 2), mean ± standard deviation): 56.9 ± 36.0 | Mean plasma concentration per dose unit ([2]; OCT1 genotype *1 / *4 (n 1)): 38.7 | Mean plasma concentration per dose unit ([2]; OCT1 genotype *2 / *2 (n 3), mean ± standard deviation): 47.6 ± 15.4 | Mean plasma concentration per dose unit ([2]; OCT1 genotype *2 / *3 (n 2), mean ± standard deviation): 52.6 ± 31.9 | Mean plasma concentration per dose unit ([2]; OCT1 genotype *3 / *3 (n 1)): 53.9
